Test results published in patent US20210228551A1, “THERAPEUTIC AGENT FOR HUMORAL IMMUNITY-RELATED DISEASES IN MATERNOFETAL RELATIONSHIP” (priority 2018, published 2021).
“Also recorded” adds a separate entry of the source.

Legend:
Type in all cases: in vivo, human
Th1 cells = assay: Analysis of Th1 cells and Th2 cells by flow cytometry; details: maternal blood; week 28 of pregnancy; tacrolimus 4 mg/day oral
Method: For the purpose of evaluating the baseline value of the Th1/Th2 cell ratio, a total of 10 ml of venous blood was collected. Th1 cells and Th2 cells were determined by detecting the production of intracellular interferon (IFN)-γ and IL-4. Specific staining of lymphocytes was performed by incubating whole blood together with anti-CD4-PC5 or anti-CD8-PC5-conjugated monoclonal antibody (rAbs) (Beckman Coulter, Inc., Fullerton, Ca, USA). Red blood cells (RBCs) were removed by hemolysis (using FACS Lysing solution; Becton, Dickinson and Company, BD 134 Biosciences, Franklin Lake, N.J., USA), and lymphocytes were analyzed using flow cytometry (FACSCalibur; Becton, Dickinson and Company). Activated whole blood samples were surface-stained using anti-CD4-PC5-conjugate (Abs), and then RBC hemolysis and specific intracellular staining using FastImmune (trademark) IFN-γ-FITC/IL-4-PE (Becton, Dickinson and Company) were carried out in sequence according to the manufacturer's instructions for use. Th1 cells were defined as CD4^+ lymphocytes accompanied by intracellular IFN-γ but not by intracellular IL-4. Th2 cells were detected as CD4^+ lymphocytes accompanied by intracellular IL-4 but not by intracellular IFN-γ. The ratio of intracellular IFN-γ-positive Th cells with respect to intracellular IL-4-positive Th cells was expressed as the Th1/Th2 cell ratio.

[1] = test system: blood type incompatible pregnancy with negative maternal Rho (D) and positive fetal Rho (D); assay: Treatment of blood type incompatible pregnancy with tacrolimus: fetal and neonatal outcome
From the text: The patient is a person having blood type A. The patient suffering from a blood type incompatible pregnancy with negative maternal Rho (D) and positive fetal Rho (D) was subjected to the following treatments. That is, at the time of the first pregnancy, anti-D immunoglobulin was not administered during pregnancy, sensitization was effected before delivery, and the anti-D antibody titer at the time of delivery was 8-fold. In week 39, they gave birth by emergency cesarean section due to placental abruption. […] The anti-D antibody titer obtained immediately after the establishment of pregnancy was 4-fold; however, the titer reached 16-fold in week 24 and reached 32-fold in week 26 (FIG. 1, upper part). After that, migration of fetal antigens to the parent's body via the placenta was assumed to further increase, and preparation of plasmapheresis and fetal blood transfusion was initiated in preparation for a rapid increase in the anti-D antibody titer. […] Furthermore, the blood flow velocity in the middle cerebral artery and the estimated body weight of the fetus were measured by fetal ultrasonography.

anti-D antibody = assay: Anti-D antibody titer by indirect Coombs test in a patient treated with tacrolimus
Method: The measurement is carried out by the indirect Coombs test. The indirect Coombs test is a test in which an anti-immunoglobulin antibody is added to a mixture of the blood serum of a patient and the blood of a healthy person to examine whether a hemagglutination reaction occurs (irregular antibody present in the blood serum is detected) (for the Coombs test, see, for example, Nissan Women's Journal Vol. 59, No. 10, N-617-N-623). The patient is a person having blood type A. The patient suffering from a blood type incompatible pregnancy with negative maternal Rho (D) and positive fetal Rho (D) was subjected to the following treatments. That is, at the time of the first pregnancy, anti-D immunoglobulin was not administered during pregnancy, sensitization was effected before delivery, and the anti-D antibody titer at the time of delivery was 8-fold. In week 39, they gave birth by emergency cesarean section due to placental abruption. […] The anti-D antibody titer obtained immediately after the establishment of pregnancy was 4-fold; however, the titer reached 16-fold in week 24 and reached 32-fold in week 26 (FIG. 1, upper part). After that, migration of fetal antigens to the parent's body via the placenta was assumed to further increase, and preparation of plasmapheresis and fetal blood transfusion was initiated in preparation for a rapid increase in the anti-D antibody titer. […] Furthermore, the blood flow velocity in the middle cerebral artery and the estimated body weight of the fetus were measured by fetal ultrasonography.

[2] = test system: infecundity considered to be caused by an abnormality in the immune system; assay: Tacrolimus treatment of infecundity: embryo transplantation outcome; details: tacrolimus 4 mg/day oral (2 mg morning, 2 mg evening); after five unsuccessful embryo transplantations
Method: Two years later, […] hoped to have a second child but suffered from infecundity and was treated for sterility by in vitro fertilization; however, since the treatment was unsuccessful after five embryo transplantations, a close examination of the immune system was conducted. At that time, a marked increase (24.9) in the Th1/Th2 (Th1 32.4, Th2 1.3) ratio was recognized, the illness was judged as infecundity considered to be caused by an abnormality in the immune system, and a tacrolimus treatment was selected.

[3] = Concentration of tacrolimus in the cord blood by chemiluminescence immunoassay (ECLIA); details: cord blood at delivery, maternal dose 5 mg/day oral
[4] = fetal ultrasonography, tacrolimus 4 then 5 mg/day oral

For `C=CCC1/C=C(\C)CC(C)CC(OC)C2OC(O)(C(=O)C(=O)N3CCCCC3C(=O)OC(/C(C)=C/C3CCC(O)C(OC)C3)C(C)C(O)CC1=O)C(C)CC2OC` (centres unmarked) [tacrolimus, 17-Allyl-1,14-dihydroxy-12-[2-(4-hydroxy-3-methoxycyclohexyl)-1-methylvinyl]-23,25-dimethoxy-13,19,21,27-tetramethyl-11,28-dioxa-4-azatricyclo[22.3.1.04,9]octacos-18-ene-2,3,10,16-tetraone], the Th1 cell population (Th1 cells) was “showed a tendency of increase again”, the “malformations and physical functions of the child” value ([1]; child at birth, maternal tacrolimus during the entire pregnancy) was “no external malformations or visceral malformations and no problem with physical functions” and the “birth weight of the child” value ([1]; delivery on day 2 of week 37) was 2834 g. The “fetal anemia (increased blood flow velocity in the middle cerebral artery)” value [1, 4] was “without observing any fetal anemia; also recorded: fetal anemia did not develop during the entire course of pregnancy”, the “growth of the fetus (estimated body weight)” value [1, 4] was “The body weight smoothly increased; also recorded: growth of the child occurred without any problem” and the “maternal and fetal conditions / course of pregnancy” value ([1]; tacrolimus 4 then 5 mg/day oral) was “stable without complications”. The “anti-D antibody titer in the cord blood” value (anti-D antibody; cord blood at delivery) was “double”, the “course of anti-D antibody titer / anti-D antibody production” value (anti-D antibody; maternal, after dose increase to 5 mg/day in week 28 of pregnancy) was “the titer did not further increase and was stabilized; also recorded: the expected increase in the anti-D antibody titer did not occur at all; also recorded: the production of anti-D antibody was also suppressed” and the anti-D antibody titer (anti-D antibody; maternal, after dose increase to 5 mg/day oral (week 28) until delivery) was 32 fold. The anti-D antibody titer (anti-D antibody; maternal, immediately after the establishment of pregnancy, tacrolimus 4 mg/day oral) was 4 fold, the anti-D antibody titer (anti-D antibody; maternal, week 24 of pregnancy, tacrolimus 4 mg/day oral) was 16 fold and the anti-D antibody titer (anti-D antibody; maternal, week 26 of pregnancy, tacrolimus 4 mg/day oral) was 32 fold. The establishment of pregnancy [2] was “Pregnancy was established by a single embryo transplantation” and the “concentration of tacrolimus in the cord blood” value [3] was “lower than or equal to the detection limit value”.
